Data as given in patent US10660874B2, “Ecteinamycin, compositions and uses thereof” (Wisconsin Alumni Research Foundation, priority 2014, dated 2020).
≈ marks a conversion by molar mass, not a printed value.

Experiments:
[1] = tested on: S. cerevisiae deletion mutants; assay: Chemical genomic analysis in yeast deletion mutants; type: cell-based, Saccharomyces cerevisiae; details: 250 μg/mL; for Fold Change in abundance relative to solvent control: 48 h
Procedure: A chemical genomic analysis of ecteinamycin was performed as described previously (Fling, S.-Y.; Sofiyev, V.; Schneiderman, J.; Hirschfeld, A. F.; Victor, R. E.; Woods, K.; Piotrowski, J. S.; Deshpande, R.; Li, S. C.; de Voogd, N. J.; Myers, C. L.; Boone, C.; Andersen, R. J.; Turvey, S. E. ACS Chem. Biol. 2014, 9, 247-257.). The optimal inhibitory concentration of ecteinamycin for chemical genomic profiling (70-80% growth versus solvent control in YP-Glucose media after 24 h of growth) was determined. A concentration of 250 μg/mL inhibited growth within this range. Two hundred μL cultures of a pooled, genome wide collection of S. cerevisiae deletion mutants with 250 μg/mL ecteinamycin or a DMSO control were grown in triplicate for 48 h at 30° C. The genomic DNA was extracted using the Epicentre MasterPure™ Yeast DNA purification kit. Mutant-specific molecular barcodes were amplified with specially designed multiplex primers containing adapters for Illumina sequencing. The barcodes were sequenced using an Illumina HiSeq2500 Rapid Run platform. Three replicates of each condition (ecteinamycin vs. DMSO) were sequenced. The barcode counts for each yeast deletion mutant in the presence of ecteinamycin were normalized against the DMSO control conditions to generate a Z-score to define sensitivity or resistance of individual strains (the chemical genomic profile). In addition, differential abundance analysis was calculated for each mutant's response to the ecteinamycin versus DMSO using edgeR. The mutants with very low counts (<5) were filtered out before using the edgeR package (version 3.4.2) to calculate an adjusted P-value and log fold change for each mutant. A Bonferroni corrected hypergeometric distribution test was used to search for significant enrichment of GO terms among the top sensitive and resistant deletion mutants with a P-value less than 0.0001.^42 The chemical genomic profile of ecteinamycin was compared against existing chemical genomic datasets by Pearson correlation.
In parallel, chemical genomic profiling with the yeast, Saccharomyces cerevisiae, was used to investigate the mechanism of action of ecteinamycin. This method has been used for determining the mechanism of action and molecular target for many bioactive compounds, including natural products. Ecteinamcyin was screened against over four thousand deletion mutant yeast strains, genomic DNA was extracted, and mutant-specific DNA barcodes were amplified and sequenced by Illumina sequencing. Ecteinamycin sensitive and resistant mutants were determined by quantification of DNA-barcodes, providing a chemical genomic profile, which was used to evaluate the mechanism of action.

[2] = tested on: S. aureus (ATCC #29213) cells; assay: Membrane depolarization assay (DiOC2(3), flow cytometry); type: cell-based; details: 6 μg/mL, 15 minutes
Procedure: S. aureus (ATCC #29213) cells were grown to log phase (14 h) in Mueller Hinton Broth cation-adjusted (MHB50) and were diluted to 0.07 OD600 with media. One mL aliquots were transferred to 1.5 mL centrifuge tubes and treated with the following in triplicate: 10 μL DMSO (control), 10 μL of 600 μg/mL ecteinamycin, 10 μL of 3.2 mg/mL ecteinamycin (1), 10 μL of 500 μM carbonyl cyanide m-chlorophenythydrazone (CCCP), and 10 μL of 3.2 mg/mL rifampicin. Additionally, each tube received 10 μL of 3 mM DiOC2(3) (3,3′-diethyloxacarbocyanine iodide). The tubes were shaken for 15 minutes at room temperature. The cells were then analyzed with a FACSCalibur (BD Biosciences) flow cytometer and CellQuestPro software (BD Biosciences). Collected data represent the geometric means of fluorescence of 40,000 gated events.
Flow cytometry was used to determine if ecteinamycin, like other polyether ionophore antibiotics, depolarizes cell membranes. 3,3′-diethyloxacarbocyanine iodide (“DiOC2(3)”) fluoresces green in bacterial cells but shifts to red when the cell membrane is depolarized. Therefore, the ratio of red to green fluorescence is indicative of the membrane potential. S. aureus ATCC […] cells were treated with ecteinamycin at concentrations of 6 and 32 μg/mL.
All cells except the DMSO negative control were treated with DiOC2(3) and analyzed by flow cytometry. […]

[3] = tested on: VRE (ATCC); assay: MIC, dilution antimicrobial susceptibility test; type: cell-based, Vancomycin-resistant Enterococcus; details: Enterococcus
Procedure: Ecteinamycin was tested for antibacterial activity against C. difficile (ATCC BAA-1870), MRSA (ATCC #33591), MSSA (ATCC #29213), E. coli (ATCC #25922), P. aeruginosa (ATCC #27853), and VRE (ATCC), and MICs were determined using a dilution antimicrobial susceptibility test for aerobic (MRSA, MSSA, E. coli, P. aeruginosa, and VRE) and anaerobic (C. difficile) bacteria. Ecteinamycin was dissolved in DMSO, serially diluted to 10 concentrations (0.0313-32 μg/mL), and tested in a 96-well plate. […] Ecteinamycin and vancomycin were tested in triplicate. Six untreated media controls were included on each plate. For MRSA, MSSA, E. coli, and P. aeruginosa, the plates were incubated at 33° C. for 18 h. For C. difficile, the plate was incubated at 36° C. for 48 h anaerobically and then read visually using a mirror apparatus. All manipulations to the plate were done inside the anaerobe chamber. The MIC was determined as the lowest concentration that inhibited visible growth.

[4] = tested on: E. coli deletion mutants; assay: Chemical genomic profiling in E. coli deletion mutants; type: cell-based, Escherichia coli
Procedure: Chemical genomic profiling was also performed in Escherichia coli to further investigate the mechanism of action of ecteinamycin. Similar to the chemical genomic profiling with yeast, ecteinamcyin was screened against over 6,000 deletion mutant E. coli strains, genomic DNA was extracted, and mutant-specific DNA barcodes were amplified and sequenced by Illumina sequencing. Ecteinamycin sensitive and resistant mutants were determined by quantification of DNA-barcodes in order to provide a chemical genomic profile to aid in evaluating the mechanism of action (Table 7).

C=C1OC(=O)C(C(=O)CC2OC(C(C)C(O)C(CC)C(=O)C(C)(O)C3CCC(CC)(C4CCC(O)(C(C)OC)C(C)O4)O3)C(C)CC2C)=C1O (stereo not shown) [ecteinamycin]
growth versus solvent control ([1]; YP-Glucose media, 24 h): 70-80%
Fold Change in abundance relative to solvent control ([1]; APL4 deletion mutant (sensitive)): 0.076
Fold Change in abundance relative to solvent control ([1]; APM2 deletion mutant (sensitive)): 0.037
Fold Change in abundance relative to solvent control ([1]; DRS2 deletion mutant (sensitive)): 0.040
Fold Change in abundance relative to solvent control ([1]; EGT2 deletion mutant (resistant)): 3.564
Fold Change in abundance relative to solvent control ([1]; HAL9 deletion mutant (resistant)): 3.379
Fold Change in abundance relative to solvent control ([1]; IRC25 deletion mutant (resistant)): 3.732
Fold Change in abundance relative to solvent control ([1]; MRH1 deletion mutant (resistant)): 4.129
Fold Change in abundance relative to solvent control ([1]; MSS11 deletion mutant (resistant)): 2.585
Fold Change in abundance relative to solvent control ([1]; PAR32 deletion mutant (sensitive)): 0.017
Fold Change in abundance relative to solvent control ([1]; PHO2 deletion mutant (resistant)): 5.974
Fold Change in abundance relative to solvent control ([1]; PHO84 deletion mutant (resistant)): 2.986
Fold Change in abundance relative to solvent control ([1]; PRE9 deletion mutant (resistant)): 5.995
Fold Change in abundance relative to solvent control ([1]; TRP4 deletion mutant (sensitive)): 0.136
Fold Change in abundance relative to solvent control ([1]; UME6 deletion mutant (resistant)): 10.979
Fold Change in abundance relative to solvent control ([1]; VPS38 deletion mutant (sensitive)): 0.087
Fold Change in abundance relative to solvent control ([1]; YMR010W deletion mutant (sensitive)): 0.122
Fold Change in abundance relative to solvent control ([1]; YOL162W deletion mutant (sensitive)): 0.145
Fold Change in abundance relative to solvent control ([1]; YPL205C deletion mutant (resistant)): 4.953
Fold Change in abundance relative to solvent control ([1]; YPR089W deletion mutant (sensitive)): 0.110
Fold Change in abundance relative to solvent control ([1]; YPT7 deletion mutant (sensitive)): 0.016
membrane depolarization (ratio of red to green fluorescence) [2]: demonstrated membrane depolarization
MIC [3]: 0.25 µg/mL (≈ 0.353 µM)
Fold Change in abundance relative to solvent control ([4]; acrA deletion mutant): 0.087
Fold Change in abundance relative to solvent control ([4]; acrB deletion mutant): 0.189
Fold Change in abundance relative to solvent control ([4]; atpA deletion mutant): 0.280
Fold Change in abundance relative to solvent control ([4]; atpF deletion mutant): 0.207
Fold Change in abundance relative to solvent control ([4]; csgE deletion mutant): 0.369
Fold Change in abundance relative to solvent control ([4]; dksA deletion mutant): 0.187
Fold Change in abundance relative to solvent control ([4]; fis deletion mutant): 0.416
Fold Change in abundance relative to solvent control ([4]; hupA deletion mutant): 0.518
Fold Change in abundance relative to solvent control ([4]; kdpD deletion mutant): 0.374
Fold Change in abundance relative to solvent control ([4]; ldcA deletion mutant): 0.341
Fold Change in abundance relative to solvent control ([4]; rpoS deletion mutant): 0.350
Fold Change in abundance relative to solvent control ([4]; sapB deletion mutant): 0.241
Fold Change in abundance relative to solvent control ([4]; sapD deletion mutant): 0.197
Fold Change in abundance relative to solvent control ([4]; trkA deletion mutant): 0.145
Fold Change in abundance relative to solvent control ([4]; ycdR deletion mutant): 0.287
Fold Change in abundance relative to solvent control ([4]; yhjK deletion mutant): 0.485
Fold Change in abundance relative to solvent control ([4]; yraP deletion mutant): 0.365
